Test results from patent US20070293553A1, “Diphenylurea Derivatives Useful As Potassium Channel Activators” (priority 2004, published 2007).

tested on: not given; assay: not given; conditions: not given

SMILES	melting point [°C]
O=C(Nc1cc(Cl)cc(Cl)c1)Nc1ccc(-c2cccc(C(F)(F)F)c2)cc1-c1nnn[nH]1 [Compound 3-39, N-(3,5-Dichloro-phenyl)-N′-[3-(1H-tetrazol-5-yl)-3′-trifluoromethyl-biphenyl-4-yl]-urea]	236 to 239
O=C(Nc1cc(C(F)(F)F)cc(C(F)(F)F)c1)Nc1ccc(-c2cccc(C(F)(F)F)c2)cc1-c1nnn[nH]1 [Compound 3-40, N-(3,5-Bis-trifluoromethyl-phenyl)-N′-[3-(1H-tetrazol-5-yl)-3′-trifluoromethyl-biphenyl-4-yl]-urea]	250 to 252
O=C(Nc1ccc(Cl)cc1)Nc1ccc(-c2ccc(C(F)(F)F)cc2)cc1-c1nnn[nH]1 [Compound 3-44, N-(4-Chloro-phenyl)-N′-[3-(1H-tetrazol-5-yl)-4′-trifluoromethyl-biphenyl-4-yl]-urea]	232 to 234
O=C(Nc1ccc(F)c(C(F)(F)F)c1)Nc1ccc(-c2cccc(C(F)(F)F)c2)cc1-c1nnn[nH]1 [Compound 3-45, N-(4-Fluoro-3-trifluoromethyl-phenyl)-N′-[3-(1H-tetrazol-5-yl)-3′-trifluoromethyl-biphenyl-4-yl]-urea]	254 to 255

More lines, now with the values ahead:

melting point [°C]	SMILES
129 to 133	COc1ccc(-c2ccc(NC(=O)Nc3cc(F)cc(F)c3)c(-c3nnn[nH]3)c2)cc1 [Compound 3-41, N-(3,5-Difluoro-phenyl)-N′-[4′-methoxy-3-(1H-tetrazol-5-yl)-biphenyl-4-yl]-urea]
219 to 221	COc1ccc(-c2ccc(NC(=O)Nc3cc(C(F)(F)F)cc(C(F)(F)F)c3)c(-c3nnn[nH]3)c2)cc1 [Compound 3-42, N-(3,5-Bis-trifluoromethyl-phenyl)-N′-[4′-methoxy-3-(1H-tetrazol-5-yl)-biphenyl-4-yl]-urea]
203 to 210	O=C(Nc1cccc(Br)c1)Nc1ccc(-c2ccc(C(F)(F)F)cc2)cc1-c1nnn[nH]1 [Compound 3-43, N-(3-Bromo-phenyl)-N′-[3-(1H-tetrazol-5-yl)-4′-trifluoromethyl-biphenyl-4-yl]-urea]

tested on: cough reflex in conscious guinea-pigs; assay: Citric acid-induced cough in conscious guinea-pigs; assay type: in vivo, guinea-pig; conditions: prior exposure to aerosolized test compound (300 μM in nebulizer solution), 10 minutes citric acid aerosol, FIG. 1
Protocol: Exposure of animals for 10 minutes with citric acid aerosol elicited a reproducible cough response.
The cough model is based on guinea-pigs that have been pre-screened to assess their cough response to a 10 minutes exposure of aerosolised 0.35 M citric acid. […] The guinea-pigs are then ranked with regard to their tussive response to citric acid and divided into groups so that the mean number of coughs per group is similar in the vehicle and drug treated groups.
Cough is detected both by pressure change and by sound and recorded using a chart recorder. All animals received Terbutaline (0.05 mg/kg i.p.) 10 minutes prior to challenge with citric acid to alleviate any bronchoconstriction that may occur. These animals were allowed to recover for 1 week. Following this rest period the study was initiated and animals received aerosolised vehicle (1% DMSO) or test compound at 300 μM in 1% DMSO in saline for 20 minutes prior to exposure to citric acid. After dosing, the animals were monitored and exposed to 0.35 M citric acid for 10 minutes, and the number of coughs recorded.
Initially N-(3,5-Dichlorophenyl)-N′-[3-(1H-tetrazol-5-yl)-3′-trifluoromethyl-bi-phenyl-4-yl]-urea (Compound A (3-39)) and N-(3,5-Dichlorophenyl)-N′-[4-bromo-2-(1H-tetrazol-5-yl)phenyl]urea (Compound B) were subjected to this determination, and the results of these determinations are presented in FIG. 1.

SMILES	cough response to citric acid
O=C(Nc1cc(Cl)cc(Cl)c1)Nc1ccc(-c2cccc(C(F)(F)F)c2)cc1-c1nnn[nH]1 [Compound 3-39, N-(3,5-Dichloro-phenyl)-N′-[3-(1H-tetrazol-5-yl)-3′-trifluoromethyl-biphenyl-4-yl]-urea]	greatly reduced
O=C(Nc1cc(Cl)cc(Cl)c1)Nc1ccc(Br)cc1-c1nnn[nH]1 [Compound B, N-(3,5-Dichlorophenyl)-N′-[4-bromo-2-(1H-tetrazol-5-yl)phenyl]urea]	greatly reduced
